The results in this text go back to patent US20260109715A1, “IMIDAZOPYRIDINE DERIVATIVES WITH BICYCLIC STRUCTURE” (PUBLIC UNIVERSITY CORPORATION YOKOHAMA CITY UNIVERSITY, priority 2022, published 2026).

Counter-ions that a name gives are not always drawn.

In assay [1] the test system is Snhg1 transcript (NMD target gene) in EMT6 murine breast cancer cell line. Briefly: Measurement of NMD inhibitory activity in cells (increase in Snhg1 transcript, real-time PCR). Also on record: species or system mouse. The settings on record: Mus musculus, 6 hours treatment, concentration giving 1/2 of maximum Snhg1 fold change of positive control, read-out: Test Example 2 Cell-based Snhg1 EC50. As to the method:
The NMD inhibitory activity of a compound of the present invention or a pharmaceutically acceptable salt thereof in cells can be measured, for example, by the method described below. EMT6 murine breast cancer cell line is treated with a test substance in vitro for 6 hours, and the increase in the transcript of Snhg1, a known NMD target gene, is quantified as an indicator of NMD inhibition. Quantification is performed by real-time PCR.
NMD inhibitory activity was measured by treating EMT6 murine breast cancer cell line (ATCC) with a test substance and quantifying the increase in the transcript of Snhg1, an NMD target gene (see F. Usui, et al., Scientific Reports volume 9, Article number: 1279 (2019) for the NMD target gene). That is, EMT6 cells were suspended in Waymouth's medium (Gibco, 15% FBS) and seeded in a 96-well plate at 2×10^4 cells/well. The cells were cultured for 1 day. The next day, serially diluted test substance (DMSO solution, final DMSO concentration: 2%) was added. After culturing for 6 hours, the supernatant was removed, and RNA was extracted using the RNeasy 96 kit (QIAGEN, 74182). After synthesizing cDNA using the High Capacity cDNA Reverse Transcription kit (Applied Biosystems, 4368813), the cDNA was mixed with PrimeTime Gene Expression Master Mix (Integrated DNA Technologies) and various probes, and gene expression was quantified using QuantStudio 6 Flex (Thermo Fisher Scientific Inc.). For the probe for the Snhg1 gene, which is an NMD target, Mm.PT.58.44039547 (FAM)(Integrated DNA Technologies) was used, and for the probe for the Tbp gene, which is an endogenous control, Mm00446973_m1 Tbp (VIC-PL) (Applied Biosystems) was used. The relative quantification of Snhg1 transcripts was calculated by the ΔΔCT method, using Thp as an endogenous control and setting the expression level of Snhg1 in untreated wells to 1.
A known NMD inhibitory compound (pyrimidine derivative Example 11i, Bioorg Med Chem Lett. 2012, 22(21), 6636-41) was used as a positive control drug for NMD inhibition. The NMD inhibitory activity of the test substance-added well was calculated as follows: the maximum fold change in Sngh1 expression in the positive control drug-added well relative to that in the untreated well was defined as the maximum NMD inhibitory activity, and the EC50 (compound concentration showing 50%/activity) of the test substance showing a ½-fold change was calculated by the GROWTH function of Microsoft Excel.
For orientation: Real-time PCR tracks product formation cycle by cycle.

The next assay has as its target human SMG1 enzyme (Homo sapiens, UniProt Q96Q15). The assay can be described thus: Measurement of SMG1 kinase activity (ADP-Glo Kinase Assay). The assay is classed as biochemical. The conditions noted are these: purified human SMG1 enzyme 5 nM, Upf1 peptide substrate, ATP 4 μM; qAC50 synonymous with IC50; read-out: Test Example 1 ADP-Glo IC50. From the text: The SMG1 kinase inhibitory activity of a compound of the present invention or a pharmaceutically acceptable salt thereof can be measured, for example, by the method described below. Using purified human SMG1 protein and a substrate peptide as materials, the kinase activity can be measured by the ADP-Glo Kinase Assay; the SMG1 kinase inhibitory activity of a test substance can be evaluated by comparing the kinase activity in the presence and absence of the test substance.
The reaction was performed by the ADP-Glo Kinase Assay (Promega, catalog number V9102) using a 384-well plate under the conditions of an assay buffer (100 mM HEPES (pH 7.5), 50 mM NaCl, 10 mM MnCl2, 0.01% BSA, 0.1% Tween 20.5 mM TCEP). After incubating a test substance (DMSO solution; final DMSO concentration: 1%) and purified human SMG1 enzyme (Genes Dev. 2011 Jan. 15; 25(2): 153-164, produced by Daiichi Sankyo RD Novare Co., Ltd.; final concentration: 5 nM) at room temperature for 15 minutes, a substrate, Upf1 peptide (Biotin-(PEG8) QIDVALSQDSTYQG, produced by Eurofins genomics; final concentration: 8 μg/mL), and ATP (Promega: 4 μM) were added, and the mixture was reacted at room temperature for 60 minutes (see Non-Patent Literature R. Melero, et al., Structure Volume 22, Issue 8, 5 Aug. 2014, Pages 1105-1119 for the Upf1 peptide). ADP-Glo Reagent was added, and the mixture was reacted at room temperature for 40 minutes. Kinase Detection Reagent was added, and the mixture was reacted for another 30 minutes. The luminescence intensity was measured using EnVision (PerkinElmer).
The activity value (%) of the test substance-added well was calculated from the following formula, where the average luminescence intensity of the DMSO-added well was 0% and the average luminescence intensity of the SMG1 enzyme-free well was −100%.
The qAC50 (compound concentration showing 50% inhibition, synonymous with IC50) of the test substance was calculated using the activity value (%) at each concentration by Smart fit of Screener (Genedata). Smart fit is a general 4-parameter logistic regression model.

Sequence of human SMG1 enzyme (Q96Q15 whole entry): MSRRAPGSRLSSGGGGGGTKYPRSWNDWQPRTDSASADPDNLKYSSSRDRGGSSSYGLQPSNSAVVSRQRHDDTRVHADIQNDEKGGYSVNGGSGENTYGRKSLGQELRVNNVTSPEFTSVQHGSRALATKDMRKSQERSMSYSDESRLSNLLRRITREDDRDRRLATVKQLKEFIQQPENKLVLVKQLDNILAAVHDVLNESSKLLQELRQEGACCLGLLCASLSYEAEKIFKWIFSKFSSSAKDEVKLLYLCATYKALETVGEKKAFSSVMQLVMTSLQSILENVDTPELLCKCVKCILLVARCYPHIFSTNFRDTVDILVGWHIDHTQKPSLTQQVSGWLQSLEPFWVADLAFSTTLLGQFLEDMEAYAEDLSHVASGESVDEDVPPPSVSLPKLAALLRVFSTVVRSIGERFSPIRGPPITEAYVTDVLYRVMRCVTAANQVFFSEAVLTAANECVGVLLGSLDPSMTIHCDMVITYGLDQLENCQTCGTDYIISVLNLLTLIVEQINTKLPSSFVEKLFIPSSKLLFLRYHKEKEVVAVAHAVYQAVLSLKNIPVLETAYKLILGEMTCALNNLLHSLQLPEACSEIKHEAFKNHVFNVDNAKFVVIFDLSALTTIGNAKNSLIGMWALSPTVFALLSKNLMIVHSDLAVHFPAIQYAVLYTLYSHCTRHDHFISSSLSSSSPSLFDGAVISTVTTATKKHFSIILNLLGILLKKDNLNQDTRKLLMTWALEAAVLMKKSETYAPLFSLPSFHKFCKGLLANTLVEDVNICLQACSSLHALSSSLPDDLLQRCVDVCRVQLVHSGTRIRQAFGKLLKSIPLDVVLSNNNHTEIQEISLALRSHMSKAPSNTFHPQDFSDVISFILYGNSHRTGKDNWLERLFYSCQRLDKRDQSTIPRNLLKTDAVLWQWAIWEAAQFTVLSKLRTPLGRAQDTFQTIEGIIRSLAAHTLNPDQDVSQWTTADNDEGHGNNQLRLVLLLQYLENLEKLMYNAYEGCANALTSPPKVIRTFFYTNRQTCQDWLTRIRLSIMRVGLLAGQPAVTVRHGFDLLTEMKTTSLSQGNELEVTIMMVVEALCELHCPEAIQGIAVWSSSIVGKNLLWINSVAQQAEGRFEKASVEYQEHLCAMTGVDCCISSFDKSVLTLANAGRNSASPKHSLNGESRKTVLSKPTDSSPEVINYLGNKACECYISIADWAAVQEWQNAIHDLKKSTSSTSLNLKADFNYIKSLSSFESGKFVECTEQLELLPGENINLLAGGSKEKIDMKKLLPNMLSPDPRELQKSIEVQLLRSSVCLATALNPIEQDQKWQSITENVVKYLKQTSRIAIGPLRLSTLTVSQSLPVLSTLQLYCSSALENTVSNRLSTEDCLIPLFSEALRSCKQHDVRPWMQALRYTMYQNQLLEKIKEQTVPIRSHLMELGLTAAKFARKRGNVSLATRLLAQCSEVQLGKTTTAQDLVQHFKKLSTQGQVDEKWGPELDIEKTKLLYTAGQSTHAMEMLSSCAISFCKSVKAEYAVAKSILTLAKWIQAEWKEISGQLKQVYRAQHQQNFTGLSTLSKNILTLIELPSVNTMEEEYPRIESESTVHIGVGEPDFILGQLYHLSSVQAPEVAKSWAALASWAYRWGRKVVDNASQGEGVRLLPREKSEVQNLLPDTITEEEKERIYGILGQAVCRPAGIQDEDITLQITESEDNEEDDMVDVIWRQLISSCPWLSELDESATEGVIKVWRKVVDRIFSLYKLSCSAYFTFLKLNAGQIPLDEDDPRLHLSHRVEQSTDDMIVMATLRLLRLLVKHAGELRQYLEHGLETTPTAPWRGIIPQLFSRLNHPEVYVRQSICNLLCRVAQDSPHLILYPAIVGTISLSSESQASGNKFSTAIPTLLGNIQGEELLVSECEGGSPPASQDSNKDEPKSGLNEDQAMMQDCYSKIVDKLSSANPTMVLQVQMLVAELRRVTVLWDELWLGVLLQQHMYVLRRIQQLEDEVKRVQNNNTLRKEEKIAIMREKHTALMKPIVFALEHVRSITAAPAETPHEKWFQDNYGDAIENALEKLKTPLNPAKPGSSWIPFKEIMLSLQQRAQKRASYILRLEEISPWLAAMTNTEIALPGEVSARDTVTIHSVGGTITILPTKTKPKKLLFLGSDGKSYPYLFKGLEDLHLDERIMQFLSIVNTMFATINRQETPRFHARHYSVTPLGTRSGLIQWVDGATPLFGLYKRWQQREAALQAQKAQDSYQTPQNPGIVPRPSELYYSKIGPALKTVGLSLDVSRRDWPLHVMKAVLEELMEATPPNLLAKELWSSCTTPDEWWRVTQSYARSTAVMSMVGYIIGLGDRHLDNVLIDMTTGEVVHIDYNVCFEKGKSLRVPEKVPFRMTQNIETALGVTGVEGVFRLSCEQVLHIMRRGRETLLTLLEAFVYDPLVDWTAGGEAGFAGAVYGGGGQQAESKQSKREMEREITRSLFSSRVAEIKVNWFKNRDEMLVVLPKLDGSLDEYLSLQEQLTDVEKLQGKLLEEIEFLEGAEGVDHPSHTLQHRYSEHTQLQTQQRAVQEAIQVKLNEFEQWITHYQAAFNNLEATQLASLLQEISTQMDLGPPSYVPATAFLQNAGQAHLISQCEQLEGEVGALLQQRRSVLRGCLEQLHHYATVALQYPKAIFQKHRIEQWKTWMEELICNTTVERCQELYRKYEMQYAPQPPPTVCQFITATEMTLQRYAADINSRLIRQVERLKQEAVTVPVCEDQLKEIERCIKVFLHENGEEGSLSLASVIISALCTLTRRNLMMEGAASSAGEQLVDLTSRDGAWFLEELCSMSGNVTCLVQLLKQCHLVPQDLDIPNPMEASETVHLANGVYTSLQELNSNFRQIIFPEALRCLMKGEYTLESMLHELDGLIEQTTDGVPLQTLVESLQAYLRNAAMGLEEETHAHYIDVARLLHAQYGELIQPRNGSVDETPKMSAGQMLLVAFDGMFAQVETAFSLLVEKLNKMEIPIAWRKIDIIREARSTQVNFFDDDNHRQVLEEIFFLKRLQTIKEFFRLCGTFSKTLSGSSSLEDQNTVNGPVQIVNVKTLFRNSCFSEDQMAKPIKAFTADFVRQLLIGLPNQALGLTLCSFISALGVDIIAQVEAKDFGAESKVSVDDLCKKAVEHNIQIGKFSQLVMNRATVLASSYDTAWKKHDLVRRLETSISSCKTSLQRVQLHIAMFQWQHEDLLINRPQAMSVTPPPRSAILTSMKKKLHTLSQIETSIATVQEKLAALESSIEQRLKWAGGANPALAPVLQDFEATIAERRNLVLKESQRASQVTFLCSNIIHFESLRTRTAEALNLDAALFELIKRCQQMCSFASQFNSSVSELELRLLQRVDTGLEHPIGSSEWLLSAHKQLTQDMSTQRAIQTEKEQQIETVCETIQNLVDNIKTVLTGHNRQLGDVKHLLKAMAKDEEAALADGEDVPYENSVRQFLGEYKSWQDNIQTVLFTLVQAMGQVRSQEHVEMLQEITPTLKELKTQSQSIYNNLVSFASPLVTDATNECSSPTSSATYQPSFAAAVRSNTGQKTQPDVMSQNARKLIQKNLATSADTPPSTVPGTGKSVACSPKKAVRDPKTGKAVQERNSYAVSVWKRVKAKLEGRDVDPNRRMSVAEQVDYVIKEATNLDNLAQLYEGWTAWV

As to `Cc1ccccc1-c1nccc2[nH]c(=O)c(-c3nc4c(N5CCCC(N)C5)nc(Cl)cc4[nH]3)cc12` (stereo not shown) [Example 56, 3-[4-(3-aminopiperidin-1-yl)-6-chloro-1H-imidazo[4,5-c]pyridin-2-yl]-5-(2-methylphenyl)-1,6-naphthyridin-2(1H)-one hydrochloride], the EC50 – broadly, the concentration at which the effect is half-maximal – in assay [1] stood at 1.2 nM. For the same compound, the IC50 (in general, the concentration at which inhibition is half-maximal) on human SMG1 enzyme amounted to 0.52 nM.
For `Cc1nn2c(C)c1-c1nccc3[nH]c(=O)c(cc13)-c1nc3c(nc(Cl)cc3[nH]1)N(C)CCCCN(C)C(=O)C2` [Example 113, 7-chloro-10,15,20,31-tetramethyl-3,8,10,15,18,19,23,27,32-nonaazahexacyclo[20.6.2.1^2,5.1^18,21.0^4,9 .0^26,30]dotriacont-1(29),2,4,6,8,19,21(31),22(30),23,25-decaen-16,28-dione], in assay [1], the EC50 came out at 8.3 nM. In addition, the IC50 at human SMG1 enzyme was found to be 0.38 nM.
For `C[C@@H]1COCCN1c1nc(Cl)cc2[nH]c(-c3cc4c(C5(C)CC5)nccc4[nH]c3=O)nc12` [Example 2, 3-{6-chloro-4-[(3R)-3-methylmorpholin-4-yl]-1H-imidazo[4,5-c]pyridin-2-yl}-5-(1-methylcyclopropyl)-1,6-naphthyridin-2(1H)-one], the EC50 in assay [1] was 94 nM. The IC50 at human SMG1 enzyme turned out to be 4.9 nM.
In the case of `CN1CCCN(C)c2nc(Cl)cc3[nH]c(nc23)-c2cc3c(nccc3[nH]c2=O)-c2ccc(cc2F)C1=O` [Example 107, 7-Chloro-18-fluoro-10,14-dimethyl-3,8,10,14,21,25,31-heptaazahexacyclo[18.6.2.2^16,19.1^2,5.0^4,9.0^24,28]hentriacont-1(27),2,4,6,8,16,18,20(28),21,23,29-undecaen-15,26-dione], in assay [1], the EC50 was found to be 30 nM. Also, at human SMG1 enzyme, the IC50 was 0.64 nM.
For `COc1cc(C2CC2)ncc1-c1nccc2[nH]c(=O)c(-c3nc4cnc(Cl)cc4[nH]3)cc12` [Example 62, 3-(6-chloro-1H-imidazo[4,5-c]pyridin-2-yl)-5-(6-cyclopropyl-4-methoxypyridin-3-yl)-1,6-naphthyridin-2(1H)-one], the EC50 in assay [1] was found to be 16 nM. For the same compound, the IC50 on human SMG1 enzyme worked out at 0.95 nM.
In the same order, the values of `Cc1nc(Cl)cc2[nH]c(-c3cc4c(-c5c(F)cccc5C#N)nccc4[nH]c3=O)nc12` [Example 45, 2-[3-(6-chloro-4-methyl-1H-imidazo[4,5-c]pyridin-2-yl)-2-oxo-1,2-dihydro-1,6-naphthyridin-5-yl]-3-fluorobenzonitrile] are 11 nM and 0.8 nM.
Take `CCc1nc(Cl)cc2[nH]c(-c3cc4c(-c5c(C)nn(C)c5C)nccc4[nH]c3=O)nc12` [Example 89, 3-(6-chloro-4-ethyl-1H-imidazo[4,5-c]pyridin-2-yl)-5-(1,3,5-trimethyl-1H-pyrazol-4-yl)-1,6-naphthyridin-2(1H)-one]: in assay [1], the EC50 is 14 nM. In addition, the IC50 at human SMG1 enzyme came to 0.59 nM.
For `C[C@@H]1C[C@@H](F)CN1c1nc(Cl)cc2[nH]c(-c3cc4c(C5CCOCC5)nccc4[nH]c3=O)nc12` [Example 119, 3-{6-chloro-4-[(2R,4R)-4-fluoro-2-methylpyrrolidin-1-yl]-1H-imidazo[4,5-c]pyridin-2-yl}-5-(tetrahydro-2H-pyran-4-yl)-1,6-naphthyridin-2(1H)-one methanesulfonate], the EC50 in assay [1] was determined as 24 nM. Moreover, the IC50 on human SMG1 enzyme was determined as 3.4 nM.
In the case of `[2H]C([2H])([2H])Oc1ccccc1-c1nccc2[nH]c(=O)c(-c3nc4c(CC(=O)NC(C)(C)C)nc(Cl)cc4[nH]3)cc12` [Example 42, N-tert-butyl-2-[6-chloro-2-(5-{2-[(^2H3)methyloxy]phenyl}-2-oxo-1,2-dihydro-1,6-naphthyridin-3-yl)-1H-imidazo[4,5-c]pyridin-4-yl]acetamide], in assay [1], the EC50 was determined as 124 nM. On human SMG1 enzyme, the IC50 came to 2.6 nM.
As for `Cc1c(-c2nccc3[nH]c(=O)c(-c4nc5cnc(Cl)cc5[nH]4)cc23)c(C2CC2)nn1CC(F)F` [Example 93, 3-(6-chloro-1H-imidazo[4,5-c]pyridin-2-yl)-5-[3-cyclopropyl-1-(2,2-difluoroethyl)-5-methyl-1H-pyrazol-4-yl]-1,6-naphthyridin-2(1H)-one], in assay [1], the EC50 is 81 nM. Further, on human SMG1 enzyme, the half-inhibitory concentration (IC50) turned out to be 1.2 nM.
With `O=c1[nH]c2ccnc(-c3cnn4c3OCCC4)c2cc1-c1nc2cnc(Cl)cc2[nH]1` [Example 95, 3-(6-chloro-1H-imidazo[4,5-c]pyridin-2-yl)-5-(6,7-dihydro-5H-pyrazolo[5,1-b][1,3]oxazin-3-yl)-1,6-naphthyridin-2(1H)-one], the EC50 in assay [1] came out at 82 nM. The IC50 at human SMG1 enzyme was found to be 1 nM.
In the same order, the values of `Cc1nccc2[nH]c(=O)c(-c3nc4c(N5C[C@H](O)C[C@H]5C)nc(Cl)cc4[nH]3)cc12` [Example 121, 3-{6-chloro-4-[(2R,4R)-4-hydroxy-2-methylpyrrolidin-1-yl]-1H-imidazo[4,5-c]pyridin-2-yl}-5-methyl-1,6-naphthyridin-2(1H)-one methanesulfonate] are 46 nM and 1.4 nM.
For the compound `O=C1CCn2cc(cn2)-c2nccc3[nH]c(=O)c(cc23)-c2nc3c(nc(Cl)cc3[nH]2)N2CCCN1CC2` [Example 116, 7-chloro-3,8,10,14,18,19,23,27,34-nonaazaheptacyclo[20.6.2.2^10,14.1^2,5.1^18,21.0^4,9.0^26,30]tetratriacont-1(29),2,4,6,8,19,21(31),22(30),23,25-decaen-15,28-dione], the EC50 in assay [1] worked out at 38 nM. In addition, the IC50 at human SMG1 enzyme turned out to be 1.2 nM.
On the same counts, the results for `COc1ncc(-c2nccc3[nH]c(=O)c(-c4nc5c(N6C[C@H](F)C[C@H]6C)nc(Cl)cc5[nH]4)cc23)c(OC)n1` [Example 71, 3-(6-chloro-4-[(2R,4R)-4-fluoro-2-methylpyrrolidin-1-yl]-1H-imidazo[4,5-c]pyridin-2-yl)-5-(2,4-dimethoxypyrimidin-5-yl)-1,6-naphthyridin-2(1H)-one] are 2.3 nM and 1.3 nM.
Regarding `O=c1[nH]c2ccnc(C3CCCCN(S(=O)(=O)c4ccccc4)C3)c2cc1-c1nc2cnc(Cl)cc2[nH]1` (stereo not shown) [Example 106, 3-(6-chloro-1H-imidazo[4,5-c]pyridin-2-yl)-5-[1-(phenylsulfonyl)azepan-3-yl]-1,6-naphthyridin-2(1H)-one], the EC50 in assay [1] is 87 nM. Further, at human SMG1 enzyme, the IC50 turned out to be 2.5 nM.
On the same counts, the results for `COc1ccccc1-c1nccc2c1CN(c1nc3cnc(Cl)cc3[nH]1)C(=O)N2` [Example 103, 3-(6-chloro-1H-imidazo[4,5-c]pyridin-2-yl)-5-(2-methoxyphenyl)-3,4-dihydropyrido[4,3-d]pyrimidin-2(1H)-one] are 71 nM and 3.3 nM.
In the same order, the values of `[2H]C([2H])([2H])Oc1ccccc1-c1nccc2[nH]c(=O)c(-c3nc4c(C5CC5)nc(Cl)cc4[nH]3)cc12` [Example 39, 3-(6-chloro-4-cyclopropyl-1H-imidazo[4,5-c]pyridin-2-yl)-5-{2-[(^2H3)methyloxy]phenyl}-1,6-naphthyridin-2(1H)-one] are 19 nM and 1.9 nM.
